# Patent US11122789B2, “Termite preferred resource compositions and methods” (priority 2015, dated 2021)
# Like-named read-outs stand apart in the source and are kept apart here.
# Columns and labels:
# Format in all cases: in vivo
# Reticulitermes flavipes [1] = conditions: 10 ppmai; 2 DA-A
# Reticulitermes flavipes [2] = conditions: for INSECT ACTIVIIS 0-4: scale 0 death, 4 normal behaviour; for % Mortality: 0.15 % v/v on ground Sabal palm
# Protocol: (§1) Bioassay tubes were loaded with 0.2 g of finely ground Sabal palm materials into microtubes. One mL of dilute active ingredient (described below) was applied to the tube and fully absorbed by the palm materials. The tubes were placed in petri dishes on a 3 mm sand base. Thirty to forty workers and soldiers from the field-collected Reticulitermes and Coptotermes colonies were introduced to the petri dishes. Termite activity was evaluated on a 0-4 scale, with 0 denoting death and 4 indicating normal behaviour. Mortality was recorded weekly for up to 9 weeks, depending on survivorship.
# Coptotermes formosanus = conditions: for INSECT ACTIVIIS 0-4: scale 0 death, 4 normal behaviour; for % Mortality: 0.15 % v/v on ground Sabal palm
# Protocol: as §1
# [3] = 7.5 ppmai on ground Sabal palm, 5 DA-A
# [4] = 75 ppmai on ground Sabal palm, 5 DA-A
# [5] = 150 ppmai on ground Sabal palm, 5 DA-A
# [6] = 300 ppmai on ground Sabal palm, 5 DA-A
smiles,measurement,setting,value
CNC(=O)c1cc(Cl)cc(C)c1NC(=O)c1cc(Br)nn1-c1ncccc1Cl [Chlorantraniliprole],TUNNEL LENGTH,Reticulitermes flavipes [1],4 CM
same,TUNNEL LENGTH,"Reticulitermes flavipes [2]; 1 ppmai, 2 DA-A",4 CM
same,INSECT ACTIVIIS 0-4,"Reticulitermes flavipes [2]; 1 ppmai, 2 DA-A",4 0-4
same,INSECT % MORTAL,"Reticulitermes flavipes [2]; 1 ppmai, 7 DA-A",0.8%
same,INSECT ACTIVIIS 0-4,"Reticulitermes flavipes [2]; 1 ppmai, 7 DA-A",4 0-4
same,INSECT % MORTAL,"Reticulitermes flavipes [2]; 1 ppmai, 9 DA-A",2.4%
same,INSECT % MORTAL,"Reticulitermes flavipes [2]; 1 ppmai, 20 DA-A",4.1%
same,INSECT ACTIVIIS 0-4,"Reticulitermes flavipes [2]; 1 ppmai, 20 DA-A",4 0-4
same,INSECT ACTIVIIS 0-4,"Reticulitermes flavipes [2]; 10 ppmai, 2 DA-A",3.3 0-4
same,INSECT % MORTAL,"Reticulitermes flavipes [2]; 10 ppmai, 7 DA-A",0.2%
same,INSECT ACTIVIIS 0-4,"Reticulitermes flavipes [2]; 10 ppmai, 7 DA-A",4 0-4
same,INSECT % MORTAL,"Reticulitermes flavipes [2]; 10 ppmai, 9 DA-A",0.5%
same,INSECT % MORTAL,"Reticulitermes flavipes [2]; 10 ppmai, 20 DA-A",4.92%
same,INSECT ACTIVIIS 0-4,"Reticulitermes flavipes [2]; 10 ppmai, 20 DA-A",4 0-4
same,TUNNEL LENGTH,"Reticulitermes flavipes [2]; 50 ppmai, 2 DA-A",2 CM
same,INSECT ACTIVIIS 0-4,"Reticulitermes flavipes [2]; 50 ppmai, 2 DA-A",2.3 0-4
same,INSECT % MORTAL,"Reticulitermes flavipes [2]; 50 ppmai, 7 DA-A",13%
same,INSECT ACTIVIIS 0-4,"Reticulitermes flavipes [2]; 50 ppmai, 7 DA-A",2 0-4
same,INSECT % MORTAL,"Reticulitermes flavipes [2]; 50 ppmai, 9 DA-A",94.7%
same,INSECT % MORTAL,"Reticulitermes flavipes [2]; 50 ppmai, 20 DA-A",100%
same,INSECT ACTIVIIS 0-4,"Reticulitermes flavipes [2]; 50 ppmai, 20 DA-A",0 0-4
same,TUNNEL LENGTH,"Reticulitermes flavipes [2]; 100 ppmai, 2 DA-A",1 CM
same,INSECT ACTIVIIS 0-4,"Reticulitermes flavipes [2]; 100 ppmai, 2 DA-A",1.3 0-4
same,INSECT % MORTAL,"Reticulitermes flavipes [2]; 100 ppmai, 7 DA-A",15%
same,INSECT ACTIVIIS 0-4,"Reticulitermes flavipes [2]; 100 ppmai, 7 DA-A",1 0-4
same,INSECT % MORTAL,"Reticulitermes flavipes [2]; 100 ppmai, 9 DA-A",100%
same,INSECT % MORTAL,"Reticulitermes flavipes [2]; 100 ppmai, 20 DA-A",100%
same,INSECT ACTIVIIS 0-4,"Reticulitermes flavipes [2]; 100 ppmai, 20 DA-A",0 0-4
same,TUNNEL LENGTH,"Coptotermes formosanus; 1 ppmai, 2 DA-A",4 CM
same,INSECT ACTIVIIS 0-4,"Coptotermes formosanus; 1 ppmai, 2 DA-A",3.3 0-4
same,INSECT % MORTAL,"Coptotermes formosanus; 1 ppmai, 7 DA-A",5.4%
same,INSECT ACTIVIIS 0-4,"Coptotermes formosanus; 1 ppmai, 7 DA-A",3.8 0-4
same,INSECT % MORTAL,"Coptotermes formosanus; 1 ppmai, 9 DA-A",2.3%
same,INSECT % MORTAL,"Coptotermes formosanus; 1 ppmai, 20 DA-A",93.4%
same,INSECT ACTIVIIS 0-4,"Coptotermes formosanus; 1 ppmai, 20 DA-A",0.5 0-4
same,TUNNEL LENGTH,"Coptotermes formosanus; 10 ppmai, 2 DA-A",4 CM
same,INSECT ACTIVIIS 0-4,"Coptotermes formosanus; 10 ppmai, 2 DA-A",4 0-4
same,INSECT % MORTAL,"Coptotermes formosanus; 10 ppmai, 7 DA-A",1.3%
same,INSECT ACTIVIIS 0-4,"Coptotermes formosanus; 10 ppmai, 7 DA-A",3.3 0-4
same,INSECT % MORTAL,"Coptotermes formosanus; 10 ppmai, 9 DA-A",1.5%
same,INSECT % MORTAL,"Coptotermes formosanus; 10 ppmai, 20 DA-A",91.1%
same,INSECT ACTIVIIS 0-4,"Coptotermes formosanus; 10 ppmai, 20 DA-A",0.8 0-4
same,TUNNEL LENGTH,"Coptotermes formosanus; 50 ppmai, 2 DA-A",1 CM
same,INSECT ACTIVIIS 0-4,"Coptotermes formosanus; 50 ppmai, 2 DA-A",1.5 0-4
same,INSECT % MORTAL,"Coptotermes formosanus; 50 ppmai, 7 DA-A",23.2%
same,INSECT ACTIVIIS 0-4,"Coptotermes formosanus; 50 ppmai, 7 DA-A",1 0-4
same,INSECT % MORTAL,"Coptotermes formosanus; 50 ppmai, 9 DA-A",90.8%
same,INSECT % MORTAL,"Coptotermes formosanus; 50 ppmai, 20 DA-A",100%
same,INSECT ACTIVIIS 0-4,"Coptotermes formosanus; 50 ppmai, 20 DA-A",0 0-4
same,TUNNEL LENGTH,"Coptotermes formosanus; 100 ppmai, 2 DA-A",1.5 CM
same,INSECT ACTIVIIS 0-4,"Coptotermes formosanus; 100 ppmai, 2 DA-A",1 0-4
same,INSECT % MORTAL,"Coptotermes formosanus; 100 ppmai, 7 DA-A",60.5%
same,INSECT ACTIVIIS 0-4,"Coptotermes formosanus; 100 ppmai, 7 DA-A",1 0-4
same,INSECT % MORTAL,"Coptotermes formosanus; 100 ppmai, 9 DA-A",98.3%
same,INSECT % MORTAL,"Coptotermes formosanus; 100 ppmai, 20 DA-A",100%
same,INSECT ACTIVIIS 0-4,"Coptotermes formosanus; 100 ppmai, 20 DA-A",0 0-4
O=C(NC(=O)c1c(F)cccc1F)Nc1cc(Cl)c(OC(F)(F)C(F)C(F)(F)F)cc1Cl (stereo not shown) [Lufenuron],% Mortality,Reticulitermes flavipes [2]; 4 DA-A,11.25%
same,% Mortality,Reticulitermes flavipes [2]; 7 DA-A,50%
same,% Mortality,Reticulitermes flavipes [2]; 11 DA-A,51.25%
same,% Mortality,Reticulitermes flavipes [2]; 18 DA-A,51.25%
same,% Mortality,Reticulitermes flavipes [2]; 25 DA-A,51.88%
same,% Mortality,Reticulitermes flavipes [2]; 32 DA-A,68.75%
same,% Mortality,Reticulitermes flavipes [2]; 41 DA-A,70.63%
same,% Mortality,Reticulitermes flavipes [2]; 53 DA-A,86.25%
same,% Mortality,Reticulitermes flavipes [2]; 63 DA-A,96.25%
same,% Mortality,Coptotermes formosanus; 4 DA-A,4.38%
same,% Mortality,Coptotermes formosanus; 7 DA-A,7.5%
same,% Mortality,Coptotermes formosanus; 11 DA-A,14.38%
same,% Mortality,Coptotermes formosanus; 18 DA-A,21.25%
same,% Mortality,Coptotermes formosanus; 25 DA-A,45%
same,% Mortality,Coptotermes formosanus; 32 DA-A,93.8%
same,% Mortality,Coptotermes formosanus; 41 DA-A,100%
CNC(=O)c1cc(C#N)cc(C)c1NC(=O)c1cc(Br)nn1-c1ncccc1Cl [Cyantraniliprole],% MORT,"Coptotermes formosanus; 5 ppmai on ground Sabal palm, 5 DA-A",0.5%
same,% MORT,"Coptotermes formosanus; 5 ppmai on ground Sabal palm, 11 DA-A",1.2%
same,% MORT,"Coptotermes formosanus; 5 ppmai on ground Sabal palm, 19 DA-A",1.2%
same,% MORT,"Coptotermes formosanus; 5 ppmai on ground Sabal palm, 37 DA-A",1.2%
same,% MORT,"Coptotermes formosanus; 50 ppmai on ground Sabal palm, 5 DA-A",3.9%
same,% MORT,"Coptotermes formosanus; 50 ppmai on ground Sabal palm, 11 DA-A",100%
same,% MORT,"Coptotermes formosanus; 50 ppmai on ground Sabal palm, 19 DA-A",100%
same,% MORT,"Coptotermes formosanus; 50 ppmai on ground Sabal palm, 37 DA-A",100%
same,% MORT,"Coptotermes formosanus; 100 ppmai on ground Sabal palm, 5 DA-A",49.3%
same,% MORT,"Coptotermes formosanus; 100 ppmai on ground Sabal palm, 11 DA-A",100%
same,% MORT,"Coptotermes formosanus; 100 ppmai on ground Sabal palm, 19 DA-A",100%
same,% MORT,"Coptotermes formosanus; 100 ppmai on ground Sabal palm, 37 DA-A",100%
same,% MORT,"Coptotermes formosanus; 200 ppmai on ground Sabal palm, 5 DA-A",80.1%
same,% MORT,"Coptotermes formosanus; 200 ppmai on ground Sabal palm, 11 DA-A",100%
same,% MORT,"Coptotermes formosanus; 200 ppmai on ground Sabal palm, 19 DA-A",100%
same,% MORT,"Coptotermes formosanus; 200 ppmai on ground Sabal palm, 37 DA-A",100%
COC(=O)N(C(=O)N1CO[C@@]2(C(=O)OC)Cc3cc(Cl)ccc3C2=N1)c1ccc(OC(F)(F)F)cc1 [Indoxacarb],% MORT,"Reticulitermes flavipes [2]; 7.5 ppmai on ground Sabal palm, 3 DA-A",9.66%
same,% MORT,Reticulitermes flavipes [2]; [3],56.71%
same,% MORT,"Reticulitermes flavipes [2]; 7.5 ppmai on ground Sabal palm, 10 DA-A",99.79%
same,% MORT,"Reticulitermes flavipes [2]; 75 ppmai on ground Sabal palm, 3 DA-A",16.59%
same,% MORT,Reticulitermes flavipes [2]; [4],87.91%
same,% MORT,"Reticulitermes flavipes [2]; 75 ppmai on ground Sabal palm, 10 DA-A",100%
same,% MORT,"Reticulitermes flavipes [2]; 150 ppmai on ground Sabal palm, 3 DA-A",22.94%
same,% MORT,Reticulitermes flavipes [2]; [5],87.84%
same,% MORT,"Reticulitermes flavipes [2]; 150 ppmai on ground Sabal palm, 10 DA-A",100%
same,% MORT,"Reticulitermes flavipes [2]; 300 ppmai on ground Sabal palm, 3 DA-A",47.09%
same,% MORT,Reticulitermes flavipes [2]; [6],98.42%
same,% MORT,"Reticulitermes flavipes [2]; 300 ppmai on ground Sabal palm, 10 DA-A",100%
same,% MORT,Coptotermes formosanus; [3],0%
same,% MORT,"Coptotermes formosanus; 7.5 ppmai on ground Sabal palm, 7 DA-A",0%
same,% MORT,"Coptotermes formosanus; 7.5 ppmai on ground Sabal palm, 12 DA-A",0%
same,% MORT,"Coptotermes formosanus; 7.5 ppmai on ground Sabal palm, 20 DA-A",2.5%
same,% MORT,"Coptotermes formosanus; 7.5 ppmai on ground Sabal palm, 28 DA-A",5%
same,% MORT,"Coptotermes formosanus; 7.5 ppmai on ground Sabal palm, 42 DA-A",90%
same,% MORT,Coptotermes formosanus; [4],0.013%
same,% MORT,"Coptotermes formosanus; 75 ppmai on ground Sabal palm, 7 DA-A",0.038%
same,% MORT,"Coptotermes formosanus; 75 ppmai on ground Sabal palm, 12 DA-A",11.68%
same,% MORT,"Coptotermes formosanus; 75 ppmai on ground Sabal palm, 20 DA-A",35%
same,% MORT,"Coptotermes formosanus; 75 ppmai on ground Sabal palm, 28 DA-A",93.8%
same,% MORT,"Coptotermes formosanus; 75 ppmai on ground Sabal palm, 42 DA-A",100%
same,% MORT,Coptotermes formosanus; [5],0%
same,% MORT,"Coptotermes formosanus; 150 ppmai on ground Sabal palm, 7 DA-A",0.013%
same,% MORT,"Coptotermes formosanus; 150 ppmai on ground Sabal palm, 12 DA-A",17.48%
same,% MORT,"Coptotermes formosanus; 150 ppmai on ground Sabal palm, 20 DA-A",37.5%
same,% MORT,"Coptotermes formosanus; 150 ppmai on ground Sabal palm, 28 DA-A",98.8%
same,% MORT,"Coptotermes formosanus; 150 ppmai on ground Sabal palm, 42 DA-A",100%
same,% MORT,Coptotermes formosanus; [6],0%
same,% MORT,"Coptotermes formosanus; 300 ppmai on ground Sabal palm, 7 DA-A",0%
same,% MORT,"Coptotermes formosanus; 300 ppmai on ground Sabal palm, 12 DA-A",17.5%
same,% MORT,"Coptotermes formosanus; 300 ppmai on ground Sabal palm, 20 DA-A",93.8%
same,% MORT,"Coptotermes formosanus; 300 ppmai on ground Sabal palm, 28 DA-A",100%
same,% MORT,"Coptotermes formosanus; 300 ppmai on ground Sabal palm, 42 DA-A",100%
